Like-named read-outs stand apart in the source and are kept apart here.
Legend:
Erk1 = target: T1, Erk1 (Homo sapiens, UniProt P27361); experiment: Protein Mass Modification Assay (intact protein MALDI, 60 min, 10-fold excess of compound); format: binding
T1 construct: purchased Millipore 14-439
Experimental: Protein Mass Modification Assay
Intact protein: Erk1 from Millipore (Cat. No. 14-439) was incubated for 60 min. at room temperature with a 10-fold excess of test compound to protein. 4 μL aliquots of the resulting mixture were diluted with 15 μL of 0.2% TFA prior to micro C4 ZipTipping directly onto the MALDI target using sinapinic acid as the desorption matrix (10 mg/ml in 0.1% TFA:Acetonitrile 50:50, v/v). The centroid mass of the target protein in the control sample was compared with the centroid mass of the target protein incubated with compound. A shift in the centroid mass of the treated protein compared to the untreated protein was divided by the molecular weight of the compound. This number corresponds to the percentage of modified protein after one hour incubation. Results from this assay are reported in Table A under the column “ERK1 Mass Mod (%).”

[1] = tested on: ERK1/2 phosphorylation of p90RSK in HT29 cells; experiment: pRSK MSD Assay in HT29 cells; format: cell-based; settings: Homo sapiens, HT-29, read-out: ERK1/ERK2 PRSK MSD HT29 EC50
Summary of the method: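 Phospho-RSK level, read by electrochemiluminescence on RSK-antibody-coated MSD plates with a phospho-RSK/Sulfo-tag detection pair, reports cellular ERK1/2 activity. HT29 cells, kept overnight in 0.1% FBS medium, were exposed to compound for 120 min at 37° C before lysis.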

MEK1 activated ERK1 = target: T2, MEK1 activated ERK1 (Homo sapiens, UniProt P27361); experiment: Omnia continuous-read kinase assay for potency against MEK1 activated ERK1; format: biochemical
T2 construct: purchased Millipore (Billerica, Mass.) 14-439-K
T2 sequence (P27361 whole entry): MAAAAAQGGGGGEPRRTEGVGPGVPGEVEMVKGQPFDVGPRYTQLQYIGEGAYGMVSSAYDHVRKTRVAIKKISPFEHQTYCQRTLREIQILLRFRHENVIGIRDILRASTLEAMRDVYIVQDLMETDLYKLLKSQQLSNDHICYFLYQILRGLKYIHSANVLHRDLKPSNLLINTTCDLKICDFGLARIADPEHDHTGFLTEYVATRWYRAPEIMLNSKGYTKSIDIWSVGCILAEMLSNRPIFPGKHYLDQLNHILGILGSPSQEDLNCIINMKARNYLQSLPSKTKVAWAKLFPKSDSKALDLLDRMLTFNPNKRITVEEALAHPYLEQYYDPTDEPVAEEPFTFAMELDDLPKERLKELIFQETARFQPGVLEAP
Summary of the method: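 Apparent IC50 came from initial reaction slopes (RFU vs time) plotted against log inhibitor with a variable-slope fit. Reactions were started with ERK1 (4 nM final) added to 50 μM ATP, roughly at its appKM, and 10 μM Sox-conjugated ST17 peptide in 20 mM Tris pH 7.5, 5 mM MgCl2. Fluorescence was monitored every 71 seconds.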

[2] = tested on: HT-29 cells (colorectal adenocarcinoma); experiment: Inhibition of cancer cell proliferation, HT-29 (CellTiterGlo, 72 hours); format: cell-based; settings: Homo sapiens
Summary of the method: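 Proliferation over 72 h at 37° C was read by CellTiterGlo luminescence, translated to cell counts with a cell-density standard curve (390–50,000 cells). Compound added as 3-fold dilutions from a 5,000 nM two-fold stock to 3000 seeded HT-29 cells; GI50 from percent inhibition relative to untreated wells.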

[3] = tested on: ERK1/2 phosphorylation of p90RSK in A375 cells; experiment: Detection of total and phosphor-RSK by MSD ELISA (A375); format: cell-based; settings: Homo sapiens, A-375, read-out: ERK1/ERK2 PRSK A375 EC50
Experimental: Detection of Total and Phosphor-RSK by MSD ELISA (A375)
The protocol below describes an assay to measure the kinase activity of ERK1/2 to phosphorylate a substrate, p90RSK, in the presence or absence of a test compound.
A375 cells were grown in DMEM/10% FBS. Twenty four hours prior to the assay, 50,000 cells per well were plated in a 96 well flat bottom plate. Once cells attached to the plate, the medium was replaced with 100 ul of DMEM/0.1% FBS. Cells were cultured overnight in an incubator at 37° C.
Compound stock solutions of 10 mM in DMSO were prepared. 1000× dilutions were then prepared in DMSO. 1 uL of DMSO solution was then transferred to 1 ml DMEM/0.1% FBS in a deep well plate. Cell plate media was discarded, followed by addition of 100 uL of the compound-containing media. The preparation was incubated at 37° C. for 2 hrs.
Cell lysates were prepared as described below.
pRSK or Total RSK MSD Assay
MSD plates: Blank MSD plates were coated with 30 uL capture antibody (BD 610226) at a final concentration of 1 ug/mL in PBS. Both pRSK and total RSK MSD assays used the same capture antibody at the same concentration. Antibody stock concentration was 250 ug/mL. Once antibody solution was added to the MSD plate, the sides were tapped to be certain it was coated completely (visual inspection). It was then covered and placed at 4° C. overnight on a level surface.
Block MSD Plate: The coating antibody was removed and the plate was washed on a plate washer in MSD wash buffer. The last bit of wash solution was tapped out and 150 uL/well of 3% BSA in MSD wash buffer was added in. The preparation was placed on a shaker at room temperature for at least an hour.
Add samples: Media was removed from compound-treated cells and replaced with 55 uL/well MSD cell lysis buffer containing protease and phosphotase I & II inhibitors. The preparation was incubated on a shaker in a cold room for 30-45 min. The blocked MSD plate was washed a on plate washer, tapping out the last bit of wash solution, followed by addition of 50 uL (of the 55 ul) cell lysate in a well-well transfer. The preparation was covered and incubated on a shaker at room temp for 2 hours. The lysate was removed, washed on a plate washer 3 times, and the last bit of wash buffer was tapped out and replace with 25 uL/well detection antibody (described below).
For pRSK detection, a pRSK antibody stock of 21 ug/mL was prepared as follows: 1 ug/mL pRSK Ser380 antibody (Cell Signaling Technology, Cat. #9335)+1:750 anti-rabbit SulfoTag (Mesoscale Discovery, Cat. # R32AB-1) in 1% BSA in MSD wash buffer.
For total RSK detection, a total RSK antibody stock of 200 ug/mL was prepared as follows: 1 ug/mL total RSK (Santa Cruz sc-231G) antibody+1:750 anti-goat SulfoTag (from MSD, R32AG-1) in 1% BSA in MSD wash buffer.
The plate was incubated for 1 hr at room temperature on a shaker, followed by three washings. The last bit of wash buffer was tapped out. 150 uL/well 1×MSD Read buffer was added and the plate was then analyzed.

[4] = MEK1 activated ERK1, ATP at KM, read-out: ERK1 Omnia WT ATP KM IC50

T1 sequence (P27361 whole entry): as above

C=CC(=O)Nc1ccccc1Nc1nc(N[C@H]2CCC[C@@H](CO)C2)ncc1Cl (racemic) [Compound I-121, Rac-cis-N-(2-((5-chloro-2-((3-(hydroxymethyl)cyclohexyl)amino)pyrimidin-4-yl)amino)phenyl)acrylamide]
ERK1 Mass Mod (%) (Erk1): E (key: E: a mass modification of ≧70%; F: a mass modification of 31-69%; G: a mass modification ≦30%)
EC50 [1]: < 100 nM
IC50 (MEK1 activated ERK1; [4]): < 100 nM
GI50 [2]: < 100 nM

C=CC(=O)Nc1ccccc1Nc1nc(N[C@@H]2CCC[C@H](C(N)=O)C2)ncc1C(F)(F)F [Compound I-7, (1S,3R)-3-((4-((2-acrylamidophenyl)amino)-5-(trifluoromethyl)pyrimidin-2-yl)amino)cyclohexanecarboxamide]
ERK1 Mass Mod (%) (Erk1): E (a mass modification of ≧70%)
EC50 [1]: 501 to 999 nM
GI50 [2]: 501 to 999 nM

C=CC(=O)Nc1ccccc1Nc1nc(Nc2cc(C(=O)NOCCO)ccc2C)ncc1C(F)(F)F [Compound I-73, 3-((4-((2-Acrylamidophenyl)amino)-5-(trifluoromethyl)pyrimidin-2-yl)amino)-N-(2-hydroxyethoxy)-4-methylbenzamide]
ERK1 Mass Mod (%) (Erk1): E (a mass modification of ≧70%)
EC50 [1]: 101 to 500 nM
IC50 (MEK1 activated ERK1; [4]): 101 to 500 nM
GI50 [2]: 101 to 500 nM

C=C(C)S(=O)(=O)Nc1cc(C)ccc1Nc1nc(Nc2cc(C(C)=O)ccc2C)ncc1C(F)(F)F [Compound I-98, N-(2-((2-((5-acetyl-2-methylphenyl)amino)-5-(trifluoromethyl)pyrimidin-4-yl)amino)-5-methylphenyl)prop-1-ene-2-sulfonamide]
ERK1 Mass Mod (%) (Erk1): G (a mass modification ≦30%)
EC50 [1]: > 1000 nM
IC50 (MEK1 activated ERK1; [4]): 101 to 500 nM

C=CC(=O)Nc1cc(OC)ccc1Nc1nc(Nc2ccc(N3CCC[C@@H]3C(N)=O)cc2C#N)ncc1Cl [Compound I-180, (R)-1-(4-((4-((2-acrylamido-4-methoxyphenyl)amino)-5-chloropyrimidin-2-yl)amino)-3-cyanophenyl)pyrrolidine-2-carboxamide]
ERK1 Mass Mod (%) (Erk1): E (a mass modification of ≧70%)
EC50 [1]: 501 to 999 nM
IC50 (MEK1 activated ERK1; [4]): 501 to 999 nM
GI50 [2]: > 1000 nM

C=CC(=O)Nc1ccccc1Nc1nc(Nc2cc(C(N)=O)ccc2C(F)(F)F)ncc1Cl [Compound I-220, 3-((4-((2-acrylamidophenyl)amino)-5-chloropyrimidin-2-yl)amino)-4-(trifluoromethyl)benzamide]
ERK1 Mass Mod (%) (Erk1): E (a mass modification of ≧70%)
EC50 [1]: 501 to 999 nM
IC50 (MEK1 activated ERK1; [4]): 101 to 500 nM

C#CCOc1cc(C)c(Nc2ncc(Cl)c(Nc3ccccc3NC(=O)C=C)n2)cc1C(N)=O [Compound I-228, 5-((4-((2-acrylamidophenyl)amino)-5-chloropyrimidin-2-yl)amino)-4-methyl-2-(prop-2-yn-1-yloxy)benzamide]
ERK1 Mass Mod (%) (Erk1): E (a mass modification of ≧70%)
EC50 [1]: 101 to 500 nM
IC50 (MEK1 activated ERK1; [4]): 101 to 500 nM

C=C(C)S(=O)(=O)Nc1cc(F)ccc1Nc1nc(Nc2cc(C(C)=O)ccc2C)ncc1Cl [Compound I-243, N-(2-((2-((5-acetyl-2-methylphenyl)amino)-5-chloropyrimidin-4-yl)amino)-5-fluorophenyl)prop-1-ene-2-sulfonamide]
ERK1 Mass Mod (%) (Erk1): G (a mass modification ≦30%)
EC50 [1]: > 1000 nM
IC50 (MEK1 activated ERK1; [4]): > 1000 nM

C=CC(=O)Nc1ccccc1Nc1nc(N[C@H]2CCCN(C(=O)CCCC(=O)NCCCOCCOCCOCCCNC(=O)CCCC[C@@H]3SC[C@@H]4NC(=O)N[C@@H]43)C2)ncc1Cl [Compound I-303, 5-((S)-3-((4-((2-acrylamidophenyl)amino)-5-chloropyrimidin-2-yl)amino)piperidin-1-yl)-5-oxo-N-(15-oxo-19-((3aS,4S,6aR)-2-oxohexahydro-1H-thieno[3,4-d]imidazol-4-yl)-4,7,10-trioxa-14-azanonadecyl)pentanamide]
ERK1 Mass Mod (%) (Erk1): G (a mass modification ≦30%)
EC50 [1]: > 1000 nM
GI50 [2]: > 1000 nM

C=CC(=O)Nc1cc(CN2CCN(C)CC2)ccc1Nc1nc(Nc2cc(OC)ncc2C)ncc1C(F)(F)F [Compound I-380, N-(2-((2-((2-methoxy-5-methylpyridin-4-yl)amino)-5-(trifluoromethyl)pyrimidin-4-yl)amino)-5-((4-methylpiperazin-1-yl)methyl)phenyl)acrylamide]
ERK1 Mass Mod (%) (Erk1): E (a mass modification of ≧70%)
EC50 [1]: 501 to 999 nM
EC50 [3]: > 1000 nM
IC50 (MEK1 activated ERK1; ATP at KM, WT): > 1000 nM

Reference: patent US9561228B2 (Celgene Avilomics Research, Inc., priority 2013, dated 2017)
